# Data: the NIST ThermoML archive (doi:10.1016/j.tca.2018.04.007)
# ± gives the expanded uncertainty stated by the source.
# Columns and labels:
# [1] = 101.33 kPa, Liquid; for viscosity: Capillary tube (Ostwald / Ubbelohde) method; for mass density: Vibrating tube method; for thermal conductivity: transient hot wire; for electrical conductivity: Direct current cell with electrodes
# [2] = refractive index (Na D-line) (dimensionless); settings: 101.33 kPa, Liquid, Standard Abbe refractometry
SMILES,mass density ([1]; 283.15 K),viscosity ([1]; 293.15 K),electrical conductivity ([1]; 293.15 K),mass density ([1]; 293.15 K),thermal conductivity ([1]; 293.15 K),viscosity ([1]; 303.15 K),electrical conductivity ([1]; 303.15 K),mass density ([1]; 303.15 K),thermal conductivity ([1]; 303.15 K),viscosity ([1]; 313.15 K),electrical conductivity ([1]; 313.15 K),mass density ([1]; 313.15 K),thermal conductivity ([1]; 313.15 K),viscosity ([1]; 323.15 K),electrical conductivity ([1]; 323.15 K),mass density ([1]; 323.15 K),thermal conductivity ([1]; 323.15 K),viscosity ([1]; 333.15 K),electrical conductivity ([1]; 333.15 K),thermal conductivity ([1]; 333.15 K),also measured
CCCC[P+](C)(CCCC)CCCC.O=S(=O)([N-]S(=O)(=O)C(F)(F)F)C(F)(F)F,1267.21 ± 2 kg/m3,299.3 ± 9.5 mPa·s,0.0367 ± 0.0037 S/m,1258.68 ± 2 kg/m3,0.126 ± 0.002 W/m/K,156 ± 3.4 mPa·s,0.0743 ± 0.0074 S/m,1250.31 ± 2 kg/m3,0.125 ± 0.002 W/m/K,87.7 ± 1.3 mPa·s,0.123 ± 0.012 S/m,1242.07 ± 2 kg/m3,0.122 ± 0.002 W/m/K,54.7 ± 0.7 mPa·s,0.187 ± 0.019 S/m,1233.84 ± 2 kg/m3,0.123 ± 0.002 W/m/K,38.4 ± 0.5 mPa·s,0.279 ± 0.028 S/m,0.122 ± 0.002 W/m/K,viscosity ([1]; 283.15 K): 616.7 ± 26 mPa·s; thermal conductivity ([1]; 283.15 K): 0.126 ± 0.002 W/m/K; mass density ([1]; 333.15 K): 1225.64 ± 2 kg/m3; viscosity ([1]; 343.15 K): 27.5 ± 0.3 mPa·s; electrical conductivity ([1]; 343.15 K): 0.405 ± 0.041 S/m; mass density ([1]; 343.15 K): 1217.49 ± 2 kg/m3; thermal conductivity ([1]; 343.15 K): 0.121 ± 0.002 W/m/K; refractive index ([2]; 283.15 K): 1.4403 ± 0.0005; refractive index ([2]; 293.15 K): 1.4374 ± 0.0005; refractive index ([2]; 303.15 K): 1.4344 ± 0.0005; refractive index ([2]; 313.15 K): 1.4314 ± 0.0005; refractive index ([2]; 323.15 K): 1.4285 ± 0.0005; refractive index ([2]; 333.15 K): 1.4255 ± 0.0005; refractive index ([2]; 343.15 K): 1.4228 ± 0.0005
CCCCn1cc[n+](C)c1.COS(=O)(=O)[O-] [1-butyl-3-methylimidazolium methyl sulfate],1218.78 ± 2 kg/m3,269.1 ± 8 mPa·s,0.104 ± 0.01 S/m,1211.96 ± 2 kg/m3,0.177 ± 0.002 W/m/K,151.9 ± 3.3 mPa·s,0.177 ± 0.018 S/m,1205.33 ± 2 kg/m3,0.176 ± 0.002 W/m/K,91.7 ± 1.4 mPa·s,0.279 ± 0.028 S/m,1198.79 ± 2 kg/m3,0.176 ± 0.002 W/m/K,59.6 ± 0.7 mPa·s,0.426 ± 0.043 S/m,1192.26 ± 2 kg/m3,0.174 ± 0.002 W/m/K,40.5 ± 0.5 mPa·s,0.623 ± 0.062 S/m,0.173 ± 0.002 W/m/K,viscosity ([1]; 283.15 K): 531.6 ± 22 mPa·s; thermal conductivity ([1]; 283.15 K): 0.179 ± 0.002 W/m/K; mass density ([1]; 333.15 K): 1185.76 ± 2 kg/m3; viscosity ([1]; 343.15 K): 28.9 ± 0.4 mPa·s; electrical conductivity ([1]; 343.15 K): 0.884 ± 0.088 S/m; mass density ([1]; 343.15 K): 1179.31 ± 2 kg/m3; thermal conductivity ([1]; 343.15 K): 0.172 ± 0.002 W/m/K; refractive index ([2]; 283.15 K): 1.4831 ± 0.0005; refractive index ([2]; 293.15 K): 1.4804 ± 0.0005; refractive index ([2]; 303.15 K): 1.4781 ± 0.0005; refractive index ([2]; 313.15 K): 1.4753 ± 0.0005; refractive index ([2]; 323.15 K): 1.4729 ± 0.0005; refractive index ([2]; 333.15 K): 1.4704 ± 0.0005; refractive index ([2]; 343.15 K): 1.4678 ± 0.0005
COS(=O)(=O)[O-].C[n+]1ccccc1 [1-methylpyridinium methylsulfate],1355 ± 2.1 kg/m3,113.5 ± 2 mPa·s,0.287 ± 0.029 S/m,1348.1 ± 2.1 kg/m3,0.205 ± 0.002 W/m/K,69.2 ± 0.9 mPa·s,0.45 ± 0.045 S/m,1341.3 ± 2.1 kg/m3,0.204 ± 0.002 W/m/K,46 ± 0.6 mPa·s,0.683 ± 0.068 S/m,1334.5 ± 2.1 kg/m3,0.204 ± 0.002 W/m/K,32 ± 0.4 mPa·s,0.986 ± 0.099 S/m,1327.8 ± 2.1 kg/m3,0.203 ± 0.002 W/m/K,23 ± 0.3 mPa·s,1.36 ± 0.14 S/m,0.202 ± 0.002 W/m/K,viscosity ([1]; 283.15 K): 199 ± 4.9 mPa·s; thermal conductivity ([1]; 283.15 K): 0.205 ± 0.002 W/m/K; mass density ([1]; 333.15 K): 1321.1 ± 2.1 kg/m3; viscosity ([1]; 343.15 K): 17.3 ± 0.2 mPa·s; electrical conductivity ([1]; 343.15 K): 1.75 ± 0.18 S/m; mass density ([1]; 343.15 K): 1314.5 ± 2.1 kg/m3; thermal conductivity ([1]; 343.15 K): 0.201 ± 0.002 W/m/K; refractive index ([2]; 283.15 K): 1.5164 ± 0.0005; refractive index ([2]; 293.15 K): 1.5139 ± 0.0005; refractive index ([2]; 303.15 K): 1.5113 ± 0.0005; refractive index ([2]; 313.15 K): 1.5088 ± 0.0005; refractive index ([2]; 323.15 K): 1.5063 ± 0.0005; refractive index ([2]; 333.15 K): 1.5039 ± 0.0005; refractive index ([2]; 343.15 K): 1.5013 ± 0.0005
OCC(O)CO [glycerol],–,–,–,–,0.284 ± 0.002 W/m/K,–,–,–,0.284 ± 0.002 W/m/K,–,–,–,0.284 ± 0.002 W/m/K,–,–,–,0.284 ± 0.002 W/m/K,–,–,0.284 ± 0.002 W/m/K,thermal conductivity ([1]; 283.15 K): 0.284 ± 0.002 W/m/K
CCCC[P+](C)(CCCC)CCCC.[Cl-] [methyltributylphosphonium chloride],964.23 ± 2 kg/m3,13511 ± 1300 mPa·s,0.00254 ± 0.00026 S/m,958.67 ± 2 kg/m3,0.159 ± 0.002 W/m/K,4692 ± 360 mPa·s,0.0059 ± 0.00059 S/m,953.44 ± 2 kg/m3,0.158 ± 0.002 W/m/K,1914 ± 120 mPa·s,0.0131 ± 0.0013 S/m,948.08 ± 2 kg/m3,0.157 ± 0.002 W/m/K,859 ± 42 mPa·s,0.029 ± 0.0029 S/m,942.74 ± 2 kg/m3,0.156 ± 0.002 W/m/K,416.8 ± 16 mPa·s,0.052 ± 0.0052 S/m,0.155 ± 0.002 W/m/K,mass density ([1]; 333.15 K): 937.42 ± 2 kg/m3; electrical conductivity ([1]; 343.15 K): 0.0941 ± 0.0094 S/m; mass density ([1]; 343.15 K): 932.12 ± 2 kg/m3; thermal conductivity ([1]; 343.15 K): 0.154 ± 0.002 W/m/K; refractive index ([2]; 283.15 K): 1.5053 ± 0.0005; refractive index ([2]; 293.15 K): 1.5037 ± 0.0005; refractive index ([2]; 303.15 K): 1.4999 ± 0.0005; refractive index ([2]; 313.15 K): 1.4972 ± 0.0005; refractive index ([2]; 323.15 K): 1.4952 ± 0.0005; refractive index ([2]; 333.15 K): 1.4923 ± 0.0005; refractive index ([2]; 343.15 K): 1.4888 ± 0.0005
CCCC[P+](C)(CCCC)CCCC.COS(=O)(=O)[O-] [tributylmethylphosphonium methyl sulfate],1066.59 ± 2 kg/m3,1434 ± 82 mPa·s,0.00749 ± 0.00075 S/m,1060.4 ± 2 kg/m3,0.16 ± 0.002 W/m/K,650.6 ± 29 mPa·s,0.0158 ± 0.0016 S/m,1054.25 ± 2 kg/m3,0.159 ± 0.002 W/m/K,339.2 ± 11 mPa·s,0.0278 ± 0.0028 S/m,1048.13 ± 2 kg/m3,0.159 ± 0.002 W/m/K,189.4 ± 4.6 mPa·s,0.0483 ± 0.0048 S/m,1042.02 ± 2 kg/m3,0.158 ± 0.002 W/m/K,113.9 ± 2 mPa·s,0.0882 ± 0.0088 S/m,0.157 ± 0.002 W/m/K,mass density ([1]; 333.15 K): 1036.12 ± 2 kg/m3; viscosity ([1]; 343.15 K): 72.4 ± 1 mPa·s; electrical conductivity ([1]; 343.15 K): 0.139 ± 0.014 S/m; mass density ([1]; 343.15 K): 1030.18 ± 2 kg/m3; thermal conductivity ([1]; 343.15 K): 0.157 ± 0.002 W/m/K; refractive index ([2]; 283.15 K): 1.4782 ± 0.0005; refractive index ([2]; 293.15 K): 1.4755 ± 0.0005; refractive index ([2]; 303.15 K): 1.4728 ± 0.0005; refractive index ([2]; 313.15 K): 1.4702 ± 0.0005; refractive index ([2]; 323.15 K): 1.4673 ± 0.0005; refractive index ([2]; 333.15 K): 1.4647 ± 0.0005; refractive index ([2]; 343.15 K): 1.4619 ± 0.0005
